Consider two substances from patent US20040006004A1, “Method for prevention and treatment of diseases or disorders related to excessive formation of vascular tissue or blood vessels” (priority 2002, published 2004).

This data set concerns NPY Y2 receptor. The experiment in a line: Hyperoxia/ischemia-induced retinal neovascularization (retinopathy) in newborn rats, fluorescent dextran flat-mount vessel count. In kind it is in vivo, rat (Sprague Dawley). To be noted: for Retinal capillary vessel formation in fluorescein images: fluorescence microscopy of flat-mounted retinas, FIG. 3; for Quantitated neovascularization (amount of retinal vessels crossed by a constant length line), Mean ± SD / Quantitated neovascularization, Range: newborn rats, intraperitoneal treatment, retinas at age of 20 days; for Quantitated neovascularization (amount of retinal vessels crossed by a constant length line), Mean ± SD: cyclic hyperoxia 40%/80%; for Quantitated neovascularization, Range: cyclic hyperoxia; for Development of retinopathy: treated groups of rat puppies. The text has this:
The present study was undertaken to determine the impact of NPY Y2 receptor targeted intervention on neovascularization and development of retinopathy. Development of retinopathy was induced to newborn rats by cyclic hyperoxia and following relative ischemia-induced retinal neovascularization. Hyperoxemia is toxic to developing retinal vessels causing damage and hypoxia in the retina. After moving to normal air, relative hypoxia follows further promoting neovascularization of the retina.
Three groups of rat puppies were subjected for different treatments; 1) vehicle, 2) NPY Y2 receptor targeted antisense oligonucleotide sequence, and 3) scramble oligonucleotide sequence containing the same oligonucleotides as NPY Y2 receptor targeted antisense oligonucleotide sequence. The treatments were administered intraperitoneally. The retinal vessels were investigated and retinopathic changes were compared between treatment groups.
Retinopathy was assessed after injection of fluorescent-labelled dextran to the circulation. The eyes were flat-mounted on slides and the retinal vessels were visualized and investigated by fluorescence microscopy. Statistical differences were calculated between the study groups.
Study protocol was approved by the Joint Ethics Committee of Turku University. Development of retinopathy was induced to newborn rats (Sprague Dawley) by cyclic hyperoxia and following relative ischemia. Hyperoxia is toxic to developing retinal vessels causing damage and hypoxia in the retina, which induces neovascularization. After moving to normal air, relative hypoxia follows further promoting neovascularization of the retina. Hypoxia is one of the major causes of retinal neovascularization in human retinopathies also. The newborn rats were kept in a hyperoxic incubator with their mothers. Retinal neovascularization was induced simultaneously for all three groups of puppies. One treatment group consisted originally of 7 puppies, which underwent cyclic hyperoxia at the age of 3 days, continued until at the age of 14 days and remained in normal room air from the age of 14 to 17 days. The amount of oxygen inside the incubator was kept at 40% and 80% in 12 hour cycles for 10 days (days from 3 to 13).
The three groups of puppies were subjected for different treatments; 1) plain vehicle, 2) NPY Y2 receptor targeted antisense oligodeoxynucleotide sequence (5′-CCTCTGCACCTAATGGGCCC-3′ (SEQ ID NO:4), containing 20 thioate modified bases) diluted in vehicle and 3) scramble oligodeoxynucleotide sequence containing the same deoxynucleotides as NPY Y2 receptor targeted antisense oligodeoxynucleotide sequence but in a random order (5′-CCATGGTAATCCGCCGCTCC-3′ (SEQ ID NO:5), containing 20 thioate modified bases) diluted in vehicle. The treatments were administered intraperitoneally. The retinal vessels were investigated and retinopathic changes were compared between treatment groups. The used NPY Y2 receptor targeted antisense deoxynucleotide sequence was designed complementary to next 20 bases from NPY Y2 gene transcription initiation codon (ATG).
At the age of 20 days, rats were decapitated and eyes were collected. Retinopathy and retinal neovascularization was assessed after an injection of fluorescent-labelled dextran to the circulation trough heart puncture. One eye from each puppy was used for visualization of retinal vessels. The eyes were flat-mounted on slides and the retinal vessels were visualized and investigated by fluorescence microscopy. Pictures of retinas were acquired using a Leica DMR/DC 100 microscope and Leica DC Wiever software.
The amount of retinal capillaries was analyzed by counting the amount of vessels crossed by a constant length line using plot profile analysis (Image-J 2.6 program). Each retina was analyzed in 3-5 representative areas and the mean values were used for further statistical analysis. Only unfolded retinal preparations were used in order to avoid artificial images of neovascularization. […]

Where [1] appears, read: post hoc analysis, less neovascularization.

As for “5′-CCATGGTAATCCGCCGCTCC-3′ (CCATGGTAATCCGCCGCTCC; DNA, all phosphorothioate, methylation of C not given here) [Scramble, reference compound]”, the “Retinal capillary vessel formation in fluorescein images” value was “irregular and disrupted”; the “Quantitated neovascularization (amount of retinal vessels crossed by a constant length line), Mean ± SD” value is on record as 31.12 ± 0.93; the “Quantitated neovascularization, Range” value is 30.33-32.25; the Development of retinopathy result was “evident”. Moreover, the “Difference in retinal neovascularization versus vehicle treatment group” value (post hoc analysis) was “no difference”.
With “5′-CCTCTGCACCTAATGGGCCC-3′ (antisense CCTCTGCACCTAATGGGCCC; DNA, all phosphorothioate, methylation of C not given here) [Y2-antisense, NPY Y2 receptor targeted antisense oligodeoxynucleotide, complementary to rat NPY Y2 mRNA, next 20 bases from initiation codon]”, the “Retinal capillary vessel formation in fluorescein images” value is “regular and continuous”; the “Quantitated neovascularization (amount of retinal vessels crossed by a constant length line), Mean ± SD” value came to 24.58 ± 0.84; the “Quantitated neovascularization, Range” value was 23.75-25.75; the Development of retinopathy result is “prevented”. For the same substance, for the setting “post hoc analysis”, the “95% confidence interval for the difference compared to scramble treatment group” value is listed as 3.76-9.31 and the “95% confidence interval for the difference compared to vehicle treatment group” value is on record as 2.48-8.33. Under setting [1], the “Mean difference in neovascularization compared to scramble treatment group” value came out at 6.53 and the “Mean difference in neovascularization compared to vehicle treatment group” value stood at 5.40.
